pIC50, pKi: −log10 of the molar value.
Columns and labels:
fMet-Leu-Phe receptor [1] = molecular target: T1, fMet-Leu-Phe receptor (Homo sapiens, UniProt P21462); assay: Intrinsic activity at FPR1 in human neutrophils assessed as increase in calcium mobilization by FLIPR assay relative to fMLF; assay type: functional
T1 sequence (P21462 whole entry): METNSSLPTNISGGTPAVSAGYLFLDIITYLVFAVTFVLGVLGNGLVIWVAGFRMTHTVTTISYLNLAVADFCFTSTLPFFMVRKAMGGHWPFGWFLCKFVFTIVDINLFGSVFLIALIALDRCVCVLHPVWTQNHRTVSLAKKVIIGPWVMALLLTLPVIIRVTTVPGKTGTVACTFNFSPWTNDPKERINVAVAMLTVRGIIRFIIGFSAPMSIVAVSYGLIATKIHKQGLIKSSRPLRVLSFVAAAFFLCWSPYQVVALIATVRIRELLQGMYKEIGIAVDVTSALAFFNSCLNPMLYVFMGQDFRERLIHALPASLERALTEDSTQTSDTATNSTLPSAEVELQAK

fMet-Leu-Phe receptor [2] = molecular target: T1, fMet-Leu-Phe receptor; assay: Antagonist activity at FPR1; assay type: functional
[3] = molecular target: T2, fMet-Leu-Phe receptor (Homo sapiens) (UniProt P21462); assay: Antagonist activity at FPR1 in human neutrophils assessed as inhibition of fMLF-stimulated calcium mobilization at 50 uM by FLIPR assay; assay type: functional
T2 sequence (whole entry): T1 sequence (P21462 whole entry)

[4] = molecular target: T2, fMet-Leu-Phe receptor (Homo sapiens); assay: Agonist activity at FPR1 in human neutrophils assessed as increase in calcium mobilization by FLIPR assay; assay type: functional; parameters: concentration or dose not given beside the values; settings: concentration not given here
[5] = Intrinsic clearance in human microsomes; assay type: ADME, Microsome

Row | SMILES | pIC50 (fMet-Leu-Phe receptor [1]) | also measured
1 | Cc1cccc(C)c1NC(=O)C(NC(=O)c1ccccc1O)C1CCCCC1 (stereo not drawn) | 6.10 | –
2 | CCC[C@H](NC(=O)c1oc2ccc(OCC)cc2c1C)c1nc2ccccc2[nH]1 | 6.00 | –
3 | CSCCC(NC(=O)c1ccc(C)cc1)c1nc2ccccc2[nH]1 (stereo not drawn) | 5.00 | –
4 | CCc1cc2c(=O)c(-c3nc4ccccc4n3C)c(C)oc2cc1OC(C)=O | – | pKi (fMet-Leu-Phe receptor [2]): 7.00
5 | COc1ccccc1C(=O)NC(C(=O)Nc1c(C)cccc1C)c1ccc(Cl)cc1 (stereo not drawn) | – | inhibition [3]: < 25%
6 | O=C(NC(C(=O)Nc1ccccc1)c1ccc(Cl)cc1)c1ccccc1O (stereo not drawn) | 5.30 | –
7 | Cc1cccc(C)c1NC(=O)C(NC(=O)c1ccccc1O)c1ccccc1 (stereo not drawn) | 5.90 | –
8 | CSCCC(NC(=O)c1occc1C)c1nc2ccccc2[nH]1 (stereo not drawn) | 5.40 | –
9 | CSCCC(NC(=O)c1ccccc1)c1nc2ccccc2n1Cc1ccccc1 (stereo not drawn) | 5.60 | inhibition [4]: < 25%
10 | CCOc1ccc2oc(C(=O)NC(c3ccccc3)c3nc4ccccc4[nH]3)c(C)c2c1 (stereo not drawn) | – | microsomal CLint [5]: 14 µL/min/mg; inhibition [3]: < 25%
11 | Cc1cccc(C)c1NC(=O)C(NC(=O)c1ccccc1O)c1cn(C)cn1 (stereo not drawn) | 5.80 | –
12 | CC(C)C(C(=O)O)N1C(=O)/C(=C2/C(=O)N(C)c3ccccc32)SC1=S (stereo not drawn) | – | pIC50 (fMet-Leu-Phe receptor [2]): 5.30
13 | CSCCC(NC(=O)c1sccc1Cl)c1ncc(-c2ccccc2)[nH]1 (stereo not drawn) | 5.20 | inhibition [4]: < 25%
14 | CCOc1ccc2oc(C(=O)N[C@@H](CSC)c3nc4ccccc4[nH]3)c(C)c2c1 | < 4.60 | –
15 | O=C(NC(C(=O)NC1CCCCC1)c1ccc(Cl)cc1)c1ccccc1O (stereo not drawn) | 5.60 | –
16 | CCOc1ccc2oc(C(=O)NC(c3nc4ccccc4[nH]3)c3cccs3)c(C)c2c1 (stereo not drawn) | – | inhibition [3]: < 25%
17 | CSCCC(NC(=O)c1sccc1Cl)c1nc2ccccc2[nH]1 (stereo not drawn) | 5.70 | –
18 | Cc1cccc(C)c1NC(=O)C(NC(=O)c1nc2ccccc2[nH]c1=O)c1ccc(Cl)cc1 (stereo not drawn) | 5.60 | –
19 | CCOc1ccc2oc(C(=O)NC(CS(C)(=O)=O)c3nc4ccccc4[nH]3)c(C)c2c1 (stereo not drawn) | 5.00 | microsomal CLint [5]: 3 µL/min/mg

Reference: ChEMBL document CHEMBL1770079, “Discovery of small molecule human FPR1 receptor antagonists” (Bioorg Med Chem Lett, 2011)
